# Test results taken from patent US11555032B2, “Isoxazole derivatives as FXR agonists and methods of use thereof” (Enanta Pharmaceuticals, Inc., priority 2019, dated 2023).
# Molecular target: T1, human FXR (NR1H4) (Homo sapiens, UniProt Q96RI1)
# T1 construct: host or cells: CHO (Chinese hamster ovary) reporter cells
# T1 sequence (Q96RI1 1-486): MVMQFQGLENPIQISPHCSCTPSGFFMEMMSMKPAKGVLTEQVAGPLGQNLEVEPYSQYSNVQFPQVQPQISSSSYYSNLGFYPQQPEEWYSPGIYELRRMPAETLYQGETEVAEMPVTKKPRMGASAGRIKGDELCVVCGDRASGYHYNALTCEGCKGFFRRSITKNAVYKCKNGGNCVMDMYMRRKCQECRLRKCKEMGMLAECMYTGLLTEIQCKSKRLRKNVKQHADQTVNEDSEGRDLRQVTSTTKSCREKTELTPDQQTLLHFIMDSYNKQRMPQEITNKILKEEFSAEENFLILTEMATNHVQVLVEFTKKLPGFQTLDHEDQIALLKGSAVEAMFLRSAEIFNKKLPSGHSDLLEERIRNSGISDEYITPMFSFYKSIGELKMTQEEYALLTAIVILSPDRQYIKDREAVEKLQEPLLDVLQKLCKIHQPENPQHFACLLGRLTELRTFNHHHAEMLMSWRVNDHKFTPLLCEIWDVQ
# Assay: Human FXR (NRIH4) Assay, luciferase reporter
# Assay type: cell-based
# Conditions: CHO reporter cells expressing human NR1H4, luciferase, 22 hours incubation
# Description: Determination of a ligand mediated Gal4 promoter driven transactivation to quantify ligand binding mediated activation of FXR. FXR Reporter Assay kit purchased from Indigo Bioscience (Catalogue number: IB00601) to determine the potency and efficacy of compound developed by Enanta that can induce FXR activation. The principle application of this reporter assay system is to quantify functional activity of human FXR. The assay utilizes non-human mammalian cells, CHO (Chinese hamster ovary) cells engineered to express human NR1H4 protein (referred to as FXR). Reporter cells also incorporate the cDNA encoding beetle luciferase which catalyzes the substrates and yields photon emission. Luminescence intensity of the reaction is quantified using a plate-reading luminometer, Envision. Reporter Cells include the luciferase reporter gene functionally linked to an FXR responsive promoter. Thus, quantifying changes in luciferase expression in the treated reporter cells provides a sensitive surrogate measure of the changes in FXR activity. EC50 and efficacy (normalize to CDCA set as 100%) is determined by XLFit. The assay is according to the manufacturer's instructions. In brief, the assay was performed in white, 96 well plates using final volume of 100 ul containing cells with different doses of compounds. Retrieve Reporter Cells from −80° C. storage. Perform a rapid thaw of the frozen cells by transferring a 10 ml volume of 37° C. cell recovery medium into the tube of frozen cells. Recap the tube of Reporter Cells and immediately place it in a 37° C. water bath for 5-10 minutes. Retrieve the tube of Reporter Cell Suspension from the water bath. Sanitize the outside surface of the tube with a 70% alcohol swab, and then transfer it into the cell culture hood. Dispense 90 μl of cell suspension into each well of the 96-well Assay Plate. Transfer the plate into 37° C. incubator, allowing the cells adherent to the bottom of the well. Dilute compounds in Dilution Plate (DP), and administrate to cells at Assay Plate (AP). DMSO content of the samples was kept at 0.2%. Cells were incubated for additional 22 hours before luciferase activities were measured. Thirty minutes before intending to quantify FXR activity, remove Detection Substrate and Detection Buffer from the refrigerator and place them in a low-light area so that they may equilibrate to room temperature. Remove the plate's lid and discard all media contents by ejecting it into an appropriate waste container. Gently tap the inverted plate onto a clean absorbent paper towel to remove residual droplets. Cells will remain tightly adhered to well bottoms. Add 100 μl of luciferase detection reagent to each well of the assay plate. Allow the assay plate to rest at room temperature for at least 5 minutes following the addition of LDR. Set the instrument (Envision) to perform a single 5 second “plate shake” prior to reading the first assay well. Read time may be 0.5 second (500 mSec) per well. EC50 and Efficacy (normalize to CDCA set as 100%) is determined by XLFit.
# The efficacy was normalized to CDCA set as 100%.
row,EC50 [nM],Structure (SMILES)
1,< 25,O=C(O)c1cc(F)c2nc(NC3C4CCC3CC(OCc3c(-c5ccccc5OC(F)(F)F)noc3C3CC3)C4)sc2c1 (stereo not drawn) [Example 3-2]
2,< 25,CC1(S(=O)(=O)NC(=O)c2cccc3nc(NC4C5CCC4CC(OCc4c(-c6ccccc6OC(F)(F)F)noc4C4CC4)C5)cnc23)CC1 (stereo not drawn) [Example 33]
3,< 25,O=C(O)c1cccc2nc(NC3C4CCC3CC(OCc3c(-c5ccccc5OC(F)(F)F)noc3C3CC3)C4)ccc12 (stereo not drawn) [Example 3-4]
4,> 500,"CCOC(=O)c1cc(F)c2nc(SC3C4CCC3CC(NCc3c(-c5ccccc5OC(F)(F)F)noc3C3CC3)C4)sc2c1 [Example 14, ethyl 2-(((1R,3r,5S,8s)-3-(((5-cyclopropyl-3-(2-(trifluoromethoxy)phenyl)isoxazol-4-yl)methyl)amino)bicyclo[3.2.1]octan-8-yl)thio)-4-fluorobenzo[d]thiazole-6-carboxylate]"
5,< 25,"CC(C)Oc1cc(C(=O)O)cc2sc(NC3C4CCC3CC(OCc3c(-c5ccccc5OC(F)(F)F)noc3C3CC3)C4)nc12 [Example 3, 2-(((1R,3r,5S,8s)-3-((5-cyclopropyl-3-(2-(trifluoromethoxy)phenyl)isoxazol-4-yl)methoxy)bicyclo[3.2.1]octan-8-yl)amino)-4-isopropoxybenzo[d]thiazole-6-carboxylic acid]"
6,25 to 500,FC(F)(F)Oc1ccccc1-c1noc(C2CC2)c1COC1CC2CCC(C1)C2Nc1nc2ccc(C(F)(F)F)cc2s1 (stereo not drawn) [Example 8-6]
7,25 to 500,"Fc1c(Br)cccc1CNC1C2CCC1CC(OCc1c(-c3ccccc3OC(F)(F)F)noc1C1CC1)C2 [Example 15, (1R,3r,5S,8s)-N-(3-bromo-2-fluorobenzyl)-3-((5-cyclopropyl-3-(2-(trifluoromethoxy)phenyl)isoxazol-4-yl)methoxy)bicyclo[3.2.1]octan-8-amine]"
8,< 25,"CC(C)Oc1cc(C(=O)O)cc2sc(N[C@H]3C[C@@H]4C[C@H]3C[C@@H]4OCc3c(-c4c(Cl)cccc4Cl)noc3C3CC3)nc12 [Example 4, 2-(((1S,2S,4S,5S)-5-((5-cyclopropyl-3-(2,6-dichlorophenyl)isoxazol-4-yl)methoxy)bicyclo[2.2.1]heptan-2-yl)amino)-4-isopropoxybenzo[d]thiazole-6-carboxylic acid]"
9,< 25,O=C(O)c1cc(F)c2nc(SC3C4CCC3CC(OCc3c(-c5ccccc5OC(F)(F)F)noc3C3CC3)C4)sc2c1 (stereo not drawn) [Example 11-17]
10,> 500,CCOC(=O)c1cc(F)c2nc(S(=O)(=O)C3C4CCC3CC(OCc3c(-c5ccccc5OC(F)(F)F)noc3C3CC3)C4)sc2c1 (stereo not drawn) [Example 11-18]
11,< 25,CC(C)Oc1cc(C(C)(C)O)cc2sc(NC3C4CCC3CC(OCc3c(-c5ccccc5OC(F)(F)F)noc3C3CC3)C4)nc12 (stereo not drawn) [Example 10]
12,25 to 500,O=C(O)c1cc(F)c2nc(S(=O)(=O)C3C4CCC3CC(OCc3c(-c5ccccc5OC(F)(F)F)noc3C3CC3)C4)sc2c1 (stereo not drawn) [Example 45]
13,< 25,CC(C)Oc1cc(-c2nnn[nH]2)cc2sc(NC3C4CCC3CC(OCc3c(-c5ccccc5OC(F)(F)F)noc3C3CC3)C4)nc12 (stereo not drawn) [Example 13-7]
14,> 500,FC(F)(F)Oc1ccccc1-c1noc(C2CC2)c1COC1CC2CCC(C1)C2Nc1nccc(-c2ccccc2)n1 (stereo not drawn) [Example 8-8]
15,< 25,FC(F)(F)Oc1ccccc1-c1noc(C2CC2)c1COC1CC2CCC(C1)C2Nc1cnc2c(-c3nnn[nH]3)cc(C3CC3)cc2n1 (stereo not drawn) [Example 28]
16,25 to 500,N#Cc1cccc2ncc(NC3C4CCC3CC(OCc3c(-c5ccccc5OC(F)(F)F)noc3C3CC3)C4)nc12 (stereo not drawn) [Example 47]
17,25 to 500,"NS(=O)(=O)c1ccc2nc(NC3C4CCC3CC(OCc3c(-c5ccccc5OC(F)(F)F)noc3C3CC3)C4)sc2c1 [Example 8, 2-(((1R,3r,5S,8s)-3-((5-cyclopropyl-3-(2-(trifluoromethoxy)phenyl)isoxazol-4-yl)methoxy)bicyclo[3.2.1]octan-8-yl)amino)benzo[d]thiazole-6-sulfonamide]"
18,> 500,O=C(O)c1cccc(S(=O)(=O)NC2C3CCC2CC(OCc2c(-c4ccccc4OC(F)(F)F)noc2C2CC2)C3)c1 (stereo not drawn) [Example 9-8]

row,EC50 [nM],Structure (SMILES)
1,< 25,N#Cc1cc(F)cc2nc(NC3C4CCC3CC(OCc3c(-c5ccccc5OC(F)(F)F)noc3C3CC3)C4)cnc12 (stereo not drawn) [Example 40]
2,25 to 500,CC(C)Oc1cc(C(=O)O)cc2sc(OC3C4CCC3CC(OCc3c(-c5ccccc5OC(F)(F)F)noc3C3CC3)C4)nc12 (stereo not drawn) [Example 18]
3,< 25,O=C(O)c1ccc2c(c1)CN(C1C3CCC1CC(OCc1c(-c4c(Cl)cccc4Cl)noc1C1CC1)C3)C2 (stereo not drawn) [Example 2-2]
4,< 25,O=C(O)c1cccc2c(S(=O)(=O)NC3C4CCC3CC(OCc3c(-c5ccccc5OC(F)(F)F)noc3C3CC3)C4)cccc12 (stereo not drawn) [Example 9-5]
5,< 25,O=S(=O)(NC1C2CCC1CC(OCc1c(-c3ccccc3OC(F)(F)F)noc1C1CC1)C2)c1cccc2ncccc12 (stereo not drawn) [Example 9-16]
6,25 to 500,"O=C(O)c1cc(F)c2nc(S[C@@H]3[C@@H]4CC[C@H]3C[C@@H](NCc3c(-c5ccccc5OC(F)(F)F)noc3C3CC3)C4)sc2c1 [Example 14-2, 2-(((1R,3r,5S,8s)-3-(((5-cyclopropyl-3-(2-(trifluoromethoxy)phenyl)isoxazol-4-yl)methyl)amino)bicyclo[3.2.1]octan-8-yl)thio)-4-fluorobenzo[d]thiazole-6-carboxylic acid]"
7,< 25,FC(F)(F)Oc1ccccc1-c1noc(C2CC2)c1COC1CC2CCC(C1)C2Nc1cnc2c(-c3nnn[nH]3)cccc2n1 (stereo not drawn) [Example 46]
8,> 500,O=C(O)c1cc(F)cc2ncc(NC3C4CCC3CC(OCc3c(-c5ccccc5OC(F)(F)F)noc3C3CC3)C4)nc12 (stereo not drawn) [Example 26]
9,< 25,O=C(O)c1cc(F)cc2nc(NC3C4CCC3CC(OCc3c(-c5ccccc5OC(F)(F)F)noc3C3CC3)C4)cnc12 (stereo not drawn) [Example 39]
10,< 25,Fc1cc(-c2nnn[nH]2)c2ncc(NC3C4CCC3CC(OCc3c(-c5ccccc5OC(F)(F)F)noc3C3CC3)C4)nc2c1 (stereo not drawn) [Example 32]
11,25 to 500,O=C(O)c1ccc2cc(S(=O)(=O)NC3C4CCC3CC(OCc3c(-c5ccccc5OC(F)(F)F)noc3C3CC3)C4)ccc2c1 (stereo not drawn) [Example 9-7]
12,25 to 500,"O=C(O)c1ccc2cc(SC3C4CCC3CC(OCc3c(-c5ccccc5OC(F)(F)F)noc3C3CC3)C4)ccc2c1 [Example 11-2, 6-(((1R,3r,5S,8s)-3-((5-cyclopropyl-3-(2-(trifluoromethoxy)phenyl)isoxazol-4-yl)methoxy)bicyclo[3.2.1]octan-8-yl)thio)-2-naphthoic acid]"
13,< 25,N#Cc1ccc2nc(NC3C4CCC3CC(OCc3c(-c5ccccc5OC(F)(F)F)noc3C3CC3)C4)cnc2c1 (stereo not drawn) [Example 35]
14,25 to 500,O=C(O)c1ccc2ccc(NC3C4CCC3CC(OCc3c(-c5ccccc5OC(F)(F)F)noc3C3CC3)C4)nc2c1 (stereo not drawn) [Example 31]
15,25 to 500,O=C(O)c1cccc(SC2C3CCC2CC(OCc2c(-c4ccccc4OC(F)(F)F)noc2C2CC2)C3)c1 (stereo not drawn) [Example 11-6]
16,> 500,N#Cc1cccc2ncc(NC3C4CCC3CC(OCc3c(-c5ccccc5OC(F)(F)F)noc3C3CC3)C4)nc12 (stereo not drawn) [Example 13-2]
17,25 to 500,O=C(O)c1cnc(NC2C3CCC2CC(OCc2c(-c4ccccc4OC(F)(F)F)noc2C2CC2)C3)c(C(F)(F)F)c1 (stereo not drawn) [Example 3-5]
18,< 25,O=S(=O)(NC1C2CCC1CC(OCc1c(-c3ccccc3OC(F)(F)F)noc1C1CC1)C2)c1cccc2ccccc12 (stereo not drawn) [Example 9-11]
